From patent US20110230472A1, “RING-FUSED AZOLE DERIVATIVE HAVING PI3K-INHIBITING ACTIVITY” (Shionogi & Co., Ltd., priority 2008, published 2011)

Columns and labels:
PI-3 kinase γ [1] = target: T1, PI-3 kinase γ (Homo sapiens, UniProt P48736); experiment: PI3Kγ inhibitory activity, PI3-kinase HTRF assay (inhibition ratio); format: biochemical; conditions: 0.5 h; for inhibition at 50 µM: compound at 50 μM
Method in brief: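 PI3Kγ preincubated 10 min with compound and PIP2 substrate (MgCl2, DTT), then ATP added for 30 min at room temperature. PIP3 detected by HTRF (665/620 nm ratio) after 18 h. Inhibition ratio at 50 or 10 μmol/L, normalised to no-compound and no-enzyme controls.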

[2] = test system: Salmonella typhimurium TA98 line, TA100 line; experiment: FAT test (mutagenicity); design: key: When the mutagenicity is negative, the compound is shown as (−); When positive, the compound is shown as (+); conditions: TA98 and TA100 lines; non-metabolism-activation and metabolism-activation conditions
Protocol: 20 μL of Salmonella enterica subsp. typhimurium (Salmonella typhimurium TA98 line, TA100 line) cryopreserved was inoculated to 10 mL of liquid nutrient medium (2.5% Oxoid nutrient broth No. 2) and then precultured at 37° C. for 10 hours with shaking. Regarding TA98 line, after 9 mL of a bacterial suspension was centrifuged (2000×g, 10 minutes) to remove the culture solution, the bacteria was suspended in 9 mL of Micro F buffer solution (K2HPO4: 3.5 g/L, KH2PO4: 1 g/L, (NH4)2SO4: 1 g/L, tri-sodium citric acid dihydrate: 0.25 g/L, MgSO4.7H2O: 0.1 g/L), and then added to 110 mL of Exposure media (Micro F buffer solution containing biotin: 8 μg/mL, histidine: 0.2 μg/mL, glucose: 8 mg/mL). Regarding TA 100 line, 120 mL of Exposure media was added to 3.16 mL of the bacterial suspension to prepare a test bacterial suspension. 12 μL of a solution of a test substance in DMSO (diluted eight times in a common ratio of 2 from the maximum dose of 50 mg/mL); 12 μL of DMSO as a negative control; 50 μg/mL 4-nitroquinoline-1-oxide solution in DMSO for TA98 line or 0.25 μg/mL 2-(2-furyl)-3-(5-nitro-2-furyl)acrylamide solution in DMSO as a positive control for TA 100 line in the case of a non-metabolism-activation condition; 12 μL of 40 μg/mL 2-aminoanthracene solution in DMSO for TA98 line or 20 μg/mL of 2-aminoanthracene solution in DMSO for TA100 line in the case of a metabolism-activation condition; were each mixed with 588 μL of the test bacterial suspension (in the case of a metabolism activation condition, a mixed solution of 498 μL of the test bacterial suspension and 90 μL S9 mix) and then cultured at 37° C. at 90 minutes with shaking. 460 μL of the bacterial suspension to which a test substance was exposed was mixed with 230 μL of Indicator media (a Micro F buffer solution containing 8 μg/mL biotin, 0.2 μg/mL histidine, 8 mg/mL glucose, and 37.5 μg/mL bromocresol purple). 50 μL thereof was dispensed to microplate 48 wells/dose and then statically cultured at 37° C. for 3 days. In a well containing bacteria which obtained proliferation potency by mutation of the amino acid (histidine) synthetase gene, the change of pH caused the color change from purple to yellow. Thus, in 48 wells per dose, the number of the bacteria-proliferation wells in which the color changed to yellow was counted, compared with a group of negative controls, and then evaluated. When the mutagenicity is negative, the compound is shown as (−). When positive, the compound is shown as (+).

CYP1A2 = target: T2, CYP1A2 (Homo sapiens, UniProt P05177); experiment: CYP inhibition test, pooled human liver microsome, CYP1A2; format: in vitro ADME; conditions: O-de-ethylation of 7-ethoxyresorufin
T2 construct: enzyme: pooled human liver microsome 0.2 mg protein/mL; from tissue; host or cells: pooled human liver microsome
T2 sequence (P05177 1-516): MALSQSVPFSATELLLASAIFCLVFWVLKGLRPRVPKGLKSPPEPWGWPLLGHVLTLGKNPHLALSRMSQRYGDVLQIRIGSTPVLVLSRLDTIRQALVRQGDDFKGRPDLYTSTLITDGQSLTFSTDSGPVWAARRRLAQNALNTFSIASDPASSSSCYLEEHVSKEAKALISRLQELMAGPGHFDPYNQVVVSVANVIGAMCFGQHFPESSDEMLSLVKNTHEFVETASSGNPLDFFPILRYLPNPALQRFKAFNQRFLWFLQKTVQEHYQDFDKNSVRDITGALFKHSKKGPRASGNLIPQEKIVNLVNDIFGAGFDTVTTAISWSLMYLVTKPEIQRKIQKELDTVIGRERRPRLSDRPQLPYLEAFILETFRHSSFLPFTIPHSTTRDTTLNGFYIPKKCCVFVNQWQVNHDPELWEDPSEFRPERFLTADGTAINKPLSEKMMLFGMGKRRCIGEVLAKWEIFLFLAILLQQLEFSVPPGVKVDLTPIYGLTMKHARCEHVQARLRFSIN
Text: (§1) O-de-ethylation of 7-ethoxyresorufin (CYP1A2), methyl-hydroxylation of tolbutamide (CYP2C9), 4′-hydroxylation of mephenyloin (CYP2C19), O-demethylation of dextromethorphan (CYP2D6), and hydroxylation of terfenadine (CYP3A4), which are typical substrate for metabolic reactions of human main CYP5 molecular species (CYP1A2, 2C9, 2C19, 2D6, and 3A4), were adopted as indexes.
(§2) The reaction conditions are as follows: substrate: 0.5 μmol/L of ethoxyresorufin (CYP1A2), 100 μmol/L of tolbutamide (CYP2C9), […] of S-mephenyloin (CYP2C19), 5 μmol/L of dextromethorphan (CYP2D6), and 1 μmol/L of terfenadine (CYP3A4); reaction time; 15 minutes; reaction temperature: 37° C.; enzyme: pooled human liver microsome 0.2 mg protein/mL; test drug concentration: 1, 5, 10, and 20 μmol/L (4 points).
(§3) In a 96-well plate, as a reaction solution, five kinds of substrates, a human liver microsome, and a test drug were added to 50 mmol/L Hepes buffer solution in the aforementioned ratio. A coenzyme NADPH was added to start a metabolic reaction, which is an index. After reacting at 37° C. for 15 minutes, a solution of methanol/acetonitrile (1/1 (v/v)) was added to quench the reaction. After centrifugation at 3000 rpm for 15 minutes, resorufin (CYP1A2 metabolite) in the supernatant was quantitated with a fluorescence multilabel counter, and hydroxylated tolbutamide (CYP2C9 metabolite), 4′-hydroxylated mephenyloin (CYP2C19 metabolite), […], terfenadine in alcohol form (CYP3A4 metabolite) were quantitated with LC/MS/MS.
(§4) The case wherein only DMSO (a solvent which dissolved a drug) was added to a reaction system was defined as a control (100%). When a test drug solution was added, the remaining activity (%) at each concentration was calculated, and then IC50 was calculated with a concentration and an inhibition ratio by an inverse estimation using a logistic model.

CYP2C9 = target: T3, CYP2C9 (Homo sapiens, UniProt P11712); experiment: CYP inhibition test, pooled human liver microsome, CYP2C9; format: in vitro ADME; conditions: methyl-hydroxylation of tolbutamide
T3 construct: enzyme: pooled human liver microsome 0.2 mg protein/mL; from tissue; host or cells: pooled human liver microsome
T3 sequence (P11712 whole entry): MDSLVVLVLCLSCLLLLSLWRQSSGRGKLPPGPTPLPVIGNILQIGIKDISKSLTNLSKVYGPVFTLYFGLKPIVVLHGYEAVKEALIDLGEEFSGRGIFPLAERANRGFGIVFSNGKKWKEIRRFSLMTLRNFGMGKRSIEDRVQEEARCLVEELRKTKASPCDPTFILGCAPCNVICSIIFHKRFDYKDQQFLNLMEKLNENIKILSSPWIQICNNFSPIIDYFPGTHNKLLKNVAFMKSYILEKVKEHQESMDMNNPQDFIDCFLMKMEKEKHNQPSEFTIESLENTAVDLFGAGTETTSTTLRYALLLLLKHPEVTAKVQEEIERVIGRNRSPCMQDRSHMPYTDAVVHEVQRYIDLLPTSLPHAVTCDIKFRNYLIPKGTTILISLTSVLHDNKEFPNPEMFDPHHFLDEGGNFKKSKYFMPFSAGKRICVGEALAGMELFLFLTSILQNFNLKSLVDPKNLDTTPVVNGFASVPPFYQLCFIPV
Text: as §1, §2, §3, §4

CYP2C19 = target: T4, CYP2C19 (Homo sapiens, UniProt P33261); experiment: CYP inhibition test, pooled human liver microsome, CYP2C19; format: in vitro ADME; conditions: 4′-hydroxylation of mephenyloin
T4 construct: enzyme: pooled human liver microsome 0.2 mg protein/mL; from tissue; host or cells: pooled human liver microsome
T4 sequence (P33261 whole entry): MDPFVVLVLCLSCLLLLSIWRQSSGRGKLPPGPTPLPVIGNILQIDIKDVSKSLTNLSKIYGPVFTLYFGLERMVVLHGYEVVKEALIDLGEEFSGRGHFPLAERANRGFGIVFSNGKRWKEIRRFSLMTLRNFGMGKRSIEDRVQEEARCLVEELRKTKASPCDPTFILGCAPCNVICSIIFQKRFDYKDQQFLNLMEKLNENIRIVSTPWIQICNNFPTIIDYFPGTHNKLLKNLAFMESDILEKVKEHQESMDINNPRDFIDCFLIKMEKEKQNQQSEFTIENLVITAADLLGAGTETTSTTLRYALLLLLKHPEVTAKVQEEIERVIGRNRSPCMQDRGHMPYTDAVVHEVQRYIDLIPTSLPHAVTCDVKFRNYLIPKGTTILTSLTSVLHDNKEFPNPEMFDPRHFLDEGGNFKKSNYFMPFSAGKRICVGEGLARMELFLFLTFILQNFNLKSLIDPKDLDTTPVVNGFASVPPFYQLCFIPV
Text: as §1, §2, §3, §4

CYP2D6 = target: T5, CYP2D6 (Homo sapiens, UniProt P10635); experiment: CYP inhibition test, pooled human liver microsome, CYP2D6; format: in vitro ADME; conditions: O-demethylation of dextromethorphan
T5 construct: enzyme: pooled human liver microsome 0.2 mg protein/mL; from tissue; host or cells: pooled human liver microsome
T5 sequence (P10635 whole entry): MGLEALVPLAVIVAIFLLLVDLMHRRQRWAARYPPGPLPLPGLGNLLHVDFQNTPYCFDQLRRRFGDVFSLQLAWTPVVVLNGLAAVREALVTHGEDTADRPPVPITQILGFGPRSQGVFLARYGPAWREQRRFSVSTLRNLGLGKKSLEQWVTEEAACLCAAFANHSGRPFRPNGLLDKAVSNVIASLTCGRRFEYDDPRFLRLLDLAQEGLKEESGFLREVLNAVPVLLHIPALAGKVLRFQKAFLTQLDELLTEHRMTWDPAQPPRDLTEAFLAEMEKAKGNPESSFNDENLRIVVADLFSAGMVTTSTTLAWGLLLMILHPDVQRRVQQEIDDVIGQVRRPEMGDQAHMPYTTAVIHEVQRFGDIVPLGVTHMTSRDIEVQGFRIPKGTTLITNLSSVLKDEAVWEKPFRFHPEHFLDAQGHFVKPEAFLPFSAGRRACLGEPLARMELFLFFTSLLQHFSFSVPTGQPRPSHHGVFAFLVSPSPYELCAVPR
Text: as §1, §2, §3, §4

CYP3A4 = target: T6, CYP3A4 (Homo sapiens, UniProt P08684); experiment: CYP inhibition test, pooled human liver microsome, CYP3A4; format: in vitro ADME; conditions: hydroxylation of terfenadine
T6 construct: enzyme: pooled human liver microsome 0.2 mg protein/mL; from tissue; host or cells: pooled human liver microsome
T6 sequence (P08684 whole entry): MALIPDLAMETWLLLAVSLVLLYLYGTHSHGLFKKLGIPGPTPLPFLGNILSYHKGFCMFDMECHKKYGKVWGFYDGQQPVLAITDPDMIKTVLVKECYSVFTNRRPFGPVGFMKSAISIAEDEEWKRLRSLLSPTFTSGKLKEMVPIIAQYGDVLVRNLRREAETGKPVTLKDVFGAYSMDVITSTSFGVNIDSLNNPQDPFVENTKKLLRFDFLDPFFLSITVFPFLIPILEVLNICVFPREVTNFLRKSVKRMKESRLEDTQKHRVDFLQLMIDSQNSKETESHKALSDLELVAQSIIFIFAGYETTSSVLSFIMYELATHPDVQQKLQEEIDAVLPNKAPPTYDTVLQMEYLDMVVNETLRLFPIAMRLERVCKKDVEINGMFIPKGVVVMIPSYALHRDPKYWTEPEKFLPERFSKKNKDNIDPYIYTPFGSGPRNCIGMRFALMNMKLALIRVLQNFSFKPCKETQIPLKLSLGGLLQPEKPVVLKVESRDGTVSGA
Text: as §1, §2, §3, §4

Solubility test = format: physicochemical; conditions: kinetic from dmso stock; artificial intestinal juice pH 6.8, 1% DMSO, 25° C. for 16 hours
Method in brief: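 Kinetic solubility with 1% DMSO: compound from 10 mmol/L DMSO stock spiked into pH 6.8 phosphate artificial intestinal juice, held 16 h at 25 °C, then suction-filtered. Filtrate diluted twofold in methanol/water (1/1) and quantified by HPLC or LC/MS/MS via absolute calibration.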

[3] = target: T7, human ether-a-go-go related gene (hERG) channel (Homo sapiens, UniProt Q12809); experiment: hERG test, whole-cell patch-clamp; format: cell-based; conditions: HEK293 cell expressing hERG; applied for 10 minutes; concentration not given
T7 construct: expressed in transfected cells; host or cells: HEK293
T7 sequence (Q12809 whole entry): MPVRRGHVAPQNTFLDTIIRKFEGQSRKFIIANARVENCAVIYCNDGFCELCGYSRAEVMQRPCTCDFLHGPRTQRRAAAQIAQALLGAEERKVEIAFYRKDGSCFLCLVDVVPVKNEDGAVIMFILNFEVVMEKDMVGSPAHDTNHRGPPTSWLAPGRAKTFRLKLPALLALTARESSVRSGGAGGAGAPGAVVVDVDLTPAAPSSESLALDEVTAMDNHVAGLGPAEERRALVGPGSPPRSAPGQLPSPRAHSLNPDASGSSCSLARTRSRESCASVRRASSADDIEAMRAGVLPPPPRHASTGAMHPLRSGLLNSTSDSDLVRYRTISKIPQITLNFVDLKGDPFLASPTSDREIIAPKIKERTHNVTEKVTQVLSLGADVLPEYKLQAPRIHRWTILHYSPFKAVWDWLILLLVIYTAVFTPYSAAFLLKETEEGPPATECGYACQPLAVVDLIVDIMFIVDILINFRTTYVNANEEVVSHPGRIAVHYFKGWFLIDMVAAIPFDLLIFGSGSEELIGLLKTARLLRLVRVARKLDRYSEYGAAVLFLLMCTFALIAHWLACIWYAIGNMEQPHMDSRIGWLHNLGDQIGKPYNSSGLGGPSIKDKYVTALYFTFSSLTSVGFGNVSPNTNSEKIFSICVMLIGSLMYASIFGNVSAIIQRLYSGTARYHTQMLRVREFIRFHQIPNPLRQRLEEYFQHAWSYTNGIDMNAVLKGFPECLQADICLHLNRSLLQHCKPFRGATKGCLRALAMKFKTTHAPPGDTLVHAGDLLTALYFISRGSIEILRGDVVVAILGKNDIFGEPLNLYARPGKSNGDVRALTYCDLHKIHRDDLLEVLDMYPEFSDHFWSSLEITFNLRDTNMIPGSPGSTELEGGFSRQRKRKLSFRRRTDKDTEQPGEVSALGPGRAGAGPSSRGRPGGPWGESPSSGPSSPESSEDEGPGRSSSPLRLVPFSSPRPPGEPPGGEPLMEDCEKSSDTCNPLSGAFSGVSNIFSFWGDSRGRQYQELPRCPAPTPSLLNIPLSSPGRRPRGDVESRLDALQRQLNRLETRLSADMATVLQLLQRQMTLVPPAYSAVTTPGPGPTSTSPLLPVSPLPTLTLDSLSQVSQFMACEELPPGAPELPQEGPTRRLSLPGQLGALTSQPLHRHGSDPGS
Text: For the purpose of risk evaluation of QT interval extension of electrocardiogram, the activity on delayed rectification K^+ current (IKr), which plays an important role in a cardiac ventricle repolarization process, was examined using the HEK293 cell that was made to express human ether-a-go-go related gene (hERG) channel.
Using an automatic patch-clamp system (PatchXpress 7000A, Axon Instruments Inc.), by a whole-cell patch-clamp method, after the cell was maintained at a membrane potential of −80 mV, IKr induced upon applying depolarizing stimulation of +50 mV for 2 seconds and further applying repolarizing stimulation of −50 mV for 2 seconds was recorded. After generated electric current became stable, a test substance dissolved at an intended concentration in extracellular fluid (137 mmol/L NaCl, 4 mmol/L KCl, 1.8 mmol/L CaCl2.2H2O, 1 mmol/L MgCl2.6H2O, 10 mmol/L glucose, 10 mmol/L HEPES (4-(2-hydroxyethyl)-1-piperazineethanesulfonic acid), pH=7.4) was applied to the cell for 10 minutes under room temperature condition. From the obtained IKr, the absolute value of the maximum tail current was measured using analysis software (DataXpress ver. 1, Molecular Devices Corporation) and the value of the electric current in a maintained membrane potential as baseline. Moreover, an inhibition ratio for the maximum tail current prior to the application of the test substance was calculated and then compared with a group of media-application (0.1% dimethylsulfoxide solution) to evaluate influence of the test substance on IKr.

PI-3 kinase γ [4] = target: T1, PI-3 kinase γ; experiment: PI3Kγ inhibitory activity (Ki value), HTRF; format: biochemical; conditions: Ki=IC50/(1+10 μM ATP/Km)
Protocol: The PI3Kγ inhibitory activity (Ki value) of a compound was evaluated according to the following procedure:
5 μL of a compound solution containing 10% DMSO and 200 μmol/L of a compound was changed to 5 μL of a compound solution containing 10% DMSO and either 200, 64, 20, 6.4, 2, 0.64, or 0.20 μmol/L of the compound (optionally, this is diluted to a lower concentration). Using a method similar to the method for measuring PI3Kγ inhibitory activity, inhibition ratios were measured in the presence of the compound at 50, 16, 5, 1.6, 0.5, 0.16, and 0.05 μmol/L (optionally, a lower concentration). Then an IC50 value was calculated by a logistic approximation method or the linear regression method using two concentrations that across 50% inhibition. Separately, the ATP concentration in the reaction solution (40 μmol/L ATP, 10 mmol/L MgCl2, 5 mmol/L DTT) at the time of the start of a reaction in the absence of the compound was changed to 80, 40, 20, 10, 5, 2.5, 1.25, or 0.625 μmol/L. Then, HTRF ratios were measured by a similar method. The value obtained by subtracting the HTRF ratio at each ATP concentration from the HTRF ratio in the absence of PI-3 kinase γ was defined as the value obtained by multiplying reaction rate (v) at each ATP concentration with a constant. The Michaelis-Menten constant Km was then calculated by the Lineweaver-Burk plot method. The Ki value of a compound was calculated by the following formula.
Ki=IC50 value/(1+10 μM (test ATP concentration)/Km (μM))

Metabolic stability test = format: in vitro ADME; conditions: human liver microsome 0.5 mg protein/mL, 1 mmol/L NADPH, 37° C.
Method in brief: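 Pooled human liver microsomes (0.5 mg protein/mL) incubated with compound and 1 mmol/L NADPH at 37° C. in pH 7.4 Tris buffer for 0 or 30 min. Parent quantified by LC/MS/MS after methanol/acetonitrile quench; value is % remaining at 30 min versus 0 min.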
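Throughout, for percentage of the test compound remained after reacting for 30 minutes: 100% equals the compound amount at 0 min reaction.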

T1 sequence (P48736 whole entry): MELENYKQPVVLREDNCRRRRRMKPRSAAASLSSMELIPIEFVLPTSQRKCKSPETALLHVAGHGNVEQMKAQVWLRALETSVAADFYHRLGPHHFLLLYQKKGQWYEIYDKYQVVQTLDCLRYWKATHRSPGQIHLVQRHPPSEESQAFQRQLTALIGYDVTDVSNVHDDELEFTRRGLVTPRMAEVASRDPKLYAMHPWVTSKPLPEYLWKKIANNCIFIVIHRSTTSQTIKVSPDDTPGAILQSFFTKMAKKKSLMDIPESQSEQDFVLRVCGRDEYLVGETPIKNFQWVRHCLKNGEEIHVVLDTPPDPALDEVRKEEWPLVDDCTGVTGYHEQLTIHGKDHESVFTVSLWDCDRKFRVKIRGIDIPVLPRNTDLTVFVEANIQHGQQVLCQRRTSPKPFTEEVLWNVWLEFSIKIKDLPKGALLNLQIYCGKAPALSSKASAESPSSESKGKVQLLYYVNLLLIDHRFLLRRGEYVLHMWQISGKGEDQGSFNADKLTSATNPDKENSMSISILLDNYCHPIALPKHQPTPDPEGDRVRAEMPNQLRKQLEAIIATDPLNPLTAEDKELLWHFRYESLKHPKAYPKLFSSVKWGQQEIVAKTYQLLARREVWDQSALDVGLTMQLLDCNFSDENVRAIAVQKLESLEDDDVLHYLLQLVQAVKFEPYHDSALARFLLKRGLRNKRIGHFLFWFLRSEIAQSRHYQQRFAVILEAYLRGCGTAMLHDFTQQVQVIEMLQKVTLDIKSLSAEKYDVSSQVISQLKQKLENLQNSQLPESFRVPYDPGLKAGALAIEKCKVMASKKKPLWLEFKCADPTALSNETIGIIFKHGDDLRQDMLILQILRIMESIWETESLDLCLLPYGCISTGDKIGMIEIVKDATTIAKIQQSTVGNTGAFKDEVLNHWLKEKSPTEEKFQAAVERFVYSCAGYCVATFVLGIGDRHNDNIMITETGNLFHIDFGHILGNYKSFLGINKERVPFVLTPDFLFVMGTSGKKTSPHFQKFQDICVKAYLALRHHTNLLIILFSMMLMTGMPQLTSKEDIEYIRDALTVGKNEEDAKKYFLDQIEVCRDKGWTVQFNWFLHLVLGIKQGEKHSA

solubility at 16 h (Solubility test) | SMILES | inhibition at 50 µM (PI-3 kinase γ [1]; PI3Kγ) | mutagenicity (FAT test) [2] | inhibition ratio for the maximum tail current (IKr) [3] | inhibition at 10 µM (PI-3 kinase γ [1]; compound at 10 μmol/L) | also measured
 | CNC(=O)Nc1cc2n(n1)CCN2c1cc(Br)cc(C(=O)N2CCCC2)c1 [Compound I-181] | ≥ 95% | (−) |  |  | 
> 50 µM | CNC(=O)Nc1cc2n(n1)CCN2c1cc(Br)cc(C(=O)N2CCNCC2)c1 [Compound I-185] | ≥ 95% |  | 8.3% |  | IC50 (CYP1A2): > 20 µM; IC50 (CYP2C9): > 20 µM; IC50 (CYP2C19): > 20 µM; IC50 (CYP2D6): > 20 µM; IC50 (CYP3A4): > 20 µM
 | COc1cc(N2CCc3nc(NC(=O)Nc4ccccc4)sc3C2)nc(OC)n1 [Compound I-203] | 95% | (−) |  |  | 
> 50 µM | COc1cc(N2CCc3nc(NC(=O)NCCC(=O)O)sc3C2)nc(OC)n1.Cl.Cl [Compound I-262] |  |  | 1.6% |  | inhibition at 10 µM (PI-3 kinase γ [1]; PI3Kγ, compound at 10 μM): ≥ 95%; Ki (PI-3 kinase γ [4]): 0.047 µM; percentage of the test compound remained after reacting for 30 minutes (Metabolic stability test): 92.8%
 | CNC(=O)Nc1nc2c(s1)CN(c1nc(OC)nc(OC)n1)CC2 [Compound I-327] |  | (−) |  | 84% | 
 | CC(C)Oc1cc(C(=O)Nc2cc3n(n2)CCN3c2ccc3c(c2)CCN(C)C3=O)on1 [Compound I-403] |  | (−) |  | ≥ 95% | 
